Key:
[1] = system: Aedes aegypti; experiment: Dose dependent one-choice mosquito landing rate inhibition assay; type: in vivo
Protocol: (§1) Nepeta cataria plants were evaluated as insect repellents against Aedes aegypti and Anopholes gambiae mosquitoes in a landing rate inhibition assay against DEET as shown in FIGS. 4 and 5. A dose dependent curve was generated for all treatments and a time course analysis was performed with a crude essential oil sample. […] Between two and four hours the ability to generate 95% repellency diminished.
Mosquito eggs were reared in water at 27° C. with 80% humidity and the mosquitoes were transferred during the rearing process with an eye dropper. The A. aegypti eggs were placed in a container holding water and once hatched and formed into larvae, they were separated from the unhatched eggs and placed into fresh water. General fish food tablets were used as the energy source for the maturing mosquitoes. As the mosquitoes began to form into pupae, they were separated from the smaller less developed larvae and placed into fresh water. This container was then placed into a Bug Dorm Cage where the pupae were allowed to mature into adults. […]
Repellency was determined by a one-choice landing assay that uses the amount of mosquito landings to calculate the overall effectiveness of the candidate repellent. […] Time lapse photography recorded one image every five seconds. […]

[2] = system: Anopholes gambiae; experiment: Dose dependent mosquito landing rate inhibition assay; type: in vivo; conditions: treatment at 1.00%, FIG. 5
Protocol: as §1
Repellency was determined by a one-choice landing assay that uses the amount of mosquito landings to calculate the overall effectiveness of the candidate repellent. Twenty, one day starved adult female Aedes aegypti mosquitoes were aspirated into a Bug Dorm Cage. Testing was performed between 10:00 am and 4:00 pm PST during A. aegypti's host seeking hours. A HotHands® heat pack was used as the heat source to attract the mosquitoes in the upper region of the back panel. Treatments were applied to a Whatman® filter paper and used to wrap the heat source. A control of just acetone was applied to the filter papers before and after each treatment to ensure reproducibility in mosquito behavior. […] Time lapse photography recorded one image every five seconds. A custom was used to count the mosquitoes automatically through the open source image processing software ImageJ.

[3] = system: two species of mosquitoes; conditions: cited from earlier work
[4] = system: harvester ants; conditions: body contact; cited from earlier work
[5] = system: house and stable flies; conditions: in vivo; cited from earlier work
[6] = system: house dust mite species, poultry mites; conditions: in vivo; cited from earlier work

With CCN(CC)C(=O)c1cccc(C)c1 [DEET] the “decrease in landings of mosquitoes (repellency)” value ([1]; treatment at 1.00% on filter paper, FIG. 4) was over 95% and the “decrease in landings of mosquitoes (repellency)” value [2] was over 95%.

For CC1COC(=O)C2C(C)CCC12 (centres unmarked) [dihydronepetalactone 2], the “duration of complete protection” value ([3]; human subjects) is listed as “up to five” and the “repelling efficacy compared with DEET” value ([3]; two species of mosquitoes) is listed as “as effective at repelling two species of mosquitoes as DEET”.

In the case of Z, E nepetalactone, the “repellency percentage compared between treatments” value ([1]; treatment at 0.10%) is given as “highest repellency percentage”, the “speed of mortality compared with the other nepetalactones in catnip” value [4] is given as “mortality was achieved faster” and the repellency [5] is given as “significant repellency”. For the same compound, the repellency [6] was “efficient in repelling”.

Source: patent publication US11390828B2, “Catnip cultivar ‘CR9’” (RUTGERS, THE STATE UNIVERSITY OF NEW JERSEY, priority 2016, dated 2022)
